Read-outs that look alike come from different tables or passages of the source.
Target: CYP2D6 (Homo sapiens, UniProt P10635)
Test: In vitro inhibition of human cytochrome P450 enzymes (fluorometric, 3-cyano-7-ethoxycoumarin substrate)
Experimental: In vitro Inhibition of Human Cytochrome P450 Enzymes
Solution A: NADPH-Regenerating System
To a glass tube on ice were added sequentially: 2% aqueous solution of sodium bicarbonate (10 mL) in NADP^+ (17 mg), glucose-6-phosphate (78 mg) and glucose-6-phosphate dehydrogenase (60 units).
To a glass tube on ice were added sequentially: 0.5 M KH2PO4 (pH 7.4, 2.4 mL), water (9 mL), CYP2D6 (480 μL of 1 picomol/microliter), and 3-cyano-7-ethoxycoumarin (5 mM in 2% acetonitrile-water, 120 microliter).
Solution A was transferred to a 96-well black plate (80 microliter per well), followed by various concentrations of a solution of N-methyl-1-[3,4-methylenedioxyphenyl]-2-aminopropane in 20% acetonitrile-water (20 microliter per well). The reaction was initiated by adding 100 microliter of solution B to each well of the 96-well plate. The plate was incubated for 30 minutes at 37° C. in the dark. The reaction was stopped by adding 75 microliter of stop buffer (4:1 acetonitrile-0.5 M Tris base) to each well, and the end point was measured in a fluorometer plate reader at λex=409 nm and λem=460 nm.

Sequence of CYP2D6 (P10635 whole entry): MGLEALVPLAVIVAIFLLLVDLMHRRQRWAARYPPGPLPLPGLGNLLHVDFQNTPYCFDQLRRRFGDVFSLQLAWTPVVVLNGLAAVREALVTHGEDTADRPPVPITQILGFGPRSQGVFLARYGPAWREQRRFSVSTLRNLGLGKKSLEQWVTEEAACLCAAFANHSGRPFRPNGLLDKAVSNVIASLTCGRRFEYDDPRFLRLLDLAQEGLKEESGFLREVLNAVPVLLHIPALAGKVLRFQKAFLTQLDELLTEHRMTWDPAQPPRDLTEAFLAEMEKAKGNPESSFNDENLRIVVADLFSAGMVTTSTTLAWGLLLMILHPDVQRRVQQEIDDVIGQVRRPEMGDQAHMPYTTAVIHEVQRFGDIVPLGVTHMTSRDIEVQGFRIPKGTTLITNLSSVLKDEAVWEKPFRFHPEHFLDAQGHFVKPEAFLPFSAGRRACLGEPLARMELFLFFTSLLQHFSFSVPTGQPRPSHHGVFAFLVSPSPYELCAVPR

Structure (SMILES)	IC50 [µM]	IC50 (read-out: IC50 (inhibition concentration of CYP2D6), CYP2D6, 3-cyano-7-ethoxycoumarin substrate, 30 minutes at 37° C., fluorescence λex=409 nm, λem=460 nm) [µM]
[2H]C([2H])([2H])NC(C)Cc1ccc2c(c1)OC([2H])([2H])O2 (single isomer, unassigned) [example 6, d5-N-methyl-1-(3,4-methylenedioxyphenyl)-2-aminopropane]	8	
[2H]C(c1ccc2c(c1)OC([2H])([2H])O2)C([2H])(C)NC([2H])([2H])[2H] (single isomer, unassigned) [example 9, d7-N-methyl-1-(3,4-methylenedioxyphenyl)-2-aminopropane]	30	
[2H]C1([2H])Oc2ccc(CC(C)NC)cc2O1 (single isomer, unassigned) [example 5, d2-N-methyl-1-(3,4-methylenedioxyphenyl)-2-aminopropane]	8	
CNC(C)Cc1ccc2c(c1)OCO2 (centres unmarked) [N-methyl-1-[3,4-methylenedioxyphenyl]-2-aminopropane, reference compound]	3	
N[C@@H]1C[C@H]1c1ccccc1 (racemic) [Tranylcypromine, reference compound]		2.4

— patent US20080045588A1, “Preparation and utility of substituted amphetamines” (Auspex Pharmaceuticals, Inc., priority 2006, published 2008)
